Source: US4119719A, “Piperazine compounds” (Parcor, priority 1975, dated 1978)

How the values were obtained:
[1] = tested on: stretching movements induced by acetic acid; test: Analgesic activity: acetic acid stretching movements (method of Koster, Anderson and De Beer); type: in vivo; settings: mice, 50 mg/kg oral thirty minutes before acetic acid; reduction in stretching movements in next thirty minutes
Protocol: The intraperitoneal injection of a dilute solution of acetic acid causes, in mice, repeated characteristic stretching movements under the effect of the pain. The oral administration of a dosage of 50 mg/kg of the test derivative, thirty minutes before the injection of acetic acid, reduces the number of movements in the next thirty minutes. In this way, the average number of stretching movements and the percentage analgesia obtained, corresponding to the percentage reduction in the number of stretching movements, compared with the controls, are determined.

dyslipaemia = test: Hypocholesterolaemic activity: rabbits kept on a hypercholesterolaemic diet, biological tests of dyslipaemia; type: in vivo; design: total cholesterol (T) / esterified cholesterol (E) / free cholesterol (L) / Burstein test with dextrane (B) / serum lipids (LS): unit not given here; settings: 10 mg/kg daily oral
Protocol: (§1) (b) This study was carried out on rabbits kept on a hypercholesterolaemic diet. The rabbits are divided into batches of 40 animals; the control batch (A) receives no treatment, whereas the treated batches are given the medicines according to the invention. Thus, derivative no. 1 is administered to the animals in batch B, derivative no. 5 to those in batch C and derivative no. 7 to those in batch D, by oral route, daily, in dosage of 10 mg/kg. On the first day of the experiments and then every 15 days, for a period of 75 days, biological tests are carried out on all the animals, whereby the various elements which indicate dyslipaemia are determined: total cholesterol (T), esterified cholesterol (E), free cholesterol (L), esterification ratio (E/T), Kunkel phenol test (K1), Kunkel phenol test (K2), Burstein test with dextrane (B) and serum lipids (LS).
(§2) The results, representing the average values determined with each batch, are assembled in the following Tables: […]

[2] = tested on: cholesterol level in the plasma; test: Hypocholesterolaemic activity: test using propyl thiouracil; type: in vivo; settings: rats, 10 mg/kg orally, 11th day
Source text: (a) Test using propyl thiouracil ([…] and Coll., J. Pharmacol. Exper. Therap., 1963, 142, 132-136). […] On the 11th day of the experiment, blood samples are taken and the free cholesterol and total cholesterol are estimated.

livers and aortas = test: Rabbits kept on a hypercholesterolaemic diet: macroscopic examination of livers and aortas; type: in vivo; settings: 10 mg/kg daily oral, end of experiment
Protocol: as §1
At the end of the experiment, all the animals are killed and autopsies are performed on them; macroscopic examinations of their livers and aortas are then carried out, and the fatty infiltrations of the liver are marked, in size, from 0 to 3 and the aortic atheromatous lesions are marked, in intensity, from 0 to 4.
as §2

[3] = LD50 /24 hours, intravenous route in mice (method of Miller and Tainter); settings: mouse, in vivo, read-out: LD50 /24 hours/kg of body weight
Protocol: 1, 53 mg for derivative no. 2, 89 mg for derivative no. 3, 57 mg for derivative no. 4, 41 mg for derivative no. 5, 62 mg for derivative no. 6, 66 mg for derivative no. 7, 74 mg for derivative no. 8 and 100 mg for derivative no. 9.

Cl.Cl.Clc1ccc(N2CCN(CCCN3CCCC3)CC2)cc1 [Derivative no. 7, 1-(p-chlorophenyl)-4-(3-pyrrolidino-propyl)-piperazine dihydrochloride]
average percentage of analgesia [1]: 69%
Burstein test with dextrane (B) (dyslipaemia; 1st Day): 10.6
Kunkel phenol test (K1) (dyslipaemia; 1st Day): 8.1
Kunkel phenol test (K2) (dyslipaemia; 1st Day): 13.2
esterification ratio (E/T) (dyslipaemia; 1st Day): 0.51
esterified cholesterol (E) (dyslipaemia; 1st Day): 0.27
free cholesterol (L) (dyslipaemia; 1st Day): 0.25
serum lipids (LS) (dyslipaemia; 1st Day): 1.98
total cholesterol (T) (dyslipaemia; 1st Day): 0.52
Burstein test with dextrane (B) (dyslipaemia; 30th Day): 21.2
Kunkel phenol test (K1) (dyslipaemia; 30th Day): 18.5
Kunkel phenol test (K2) (dyslipaemia; 30th Day): 25.2
esterification ratio (E/T) (dyslipaemia; 30th Day): 0.63
esterified cholesterol (E) (dyslipaemia; 30th Day): 0.96
free cholesterol (L) (dyslipaemia; 30th Day): 0.55
serum lipids (LS) (dyslipaemia; 30th Day): 2.88
total cholesterol (T) (dyslipaemia; 30th Day): 1.51
Burstein test with dextrane (B) (dyslipaemia; 75th Day): 35.6
Kunkel phenol test (K1) (dyslipaemia; 75th Day): 32.9
Kunkel phenol test (K2) (dyslipaemia; 75th Day): 50.0
esterification ratio (E/T) (dyslipaemia; 75th Day): 0.62
esterified cholesterol (E) (dyslipaemia; 75th Day): 1.83
free cholesterol (L) (dyslipaemia; 75th Day): 1.12
serum lipids (LS) (dyslipaemia; 75th Day): 3.97
total cholesterol (T) (dyslipaemia; 75th Day): 2.95
Free cholesterol [2]: 0.12 g/L
Total cholesterol [2]: 0.50 g/L
aortic atheromatous lesions (livers and aortas; marked in intensity from 0 to 4): 1.4
fatty infiltrations of the liver (livers and aortas; marked in size from 0 to 3): 1.2
LD50 at 24 h [3]: 66 mg/kg
